Source: PubChem BioAssay AID248 (DTP/NCI, 2004)
Where “and” joins values, the source holds several entries; their conditions need not be identical. Equal values may be shown once. Toxic doses and inconclusive results are not listed. Rule as the data show it: active = T/C of 150% or more; inactive = T/C below 125%.

Tested on: L1210 leukemia ip in BDF1 mice, survival T/C
Assay: NCI In Vivo Anticancer Drug Screen. Data for tumor model L1210 Leukemia (intraperitoneal) in B6D2F1 (BDF1) mice
Details: endpoint: mean survival time, higher = longer survival
Method in brief: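 Tumor cells were implanted, animals were treated, and survival was followed. The result divides the treated measurement by the vehicle-control measurement.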

[1] = dose: 100.0 mg/kg/injection, schedule: Q01DX001 (ip), vehicle: saline
[2] = dose: 200.0 mg/kg/injection, schedule: Q01DX001 (ip), vehicle: saline
[3] = dose: 400.0 mg/kg/injection, schedule: Q01DX001 (ip), vehicle: saline
[4] = dose: 200.0 mg/kg/injection, schedule: Q04DX003 (ip), vehicle: saline with Tween-80
[5] = dose: 400.0 mg/kg/injection, schedule: Q04DX003 (ip), vehicle: saline with Tween-80
[6] = dose: 100.0 mg/kg/injection, schedule: Q04DX002 (ip), vehicle: saline
[7] = dose: 200.0 mg/kg/injection, schedule: Q04DX002 (ip), vehicle: saline
[8] = dose: 100.0 mg/kg/injection, schedule: Q01DX009 (ip), vehicle: Klucel (hydroxypropylcellulose) (HPC)
[9] = dose: 200.0 mg/kg/injection, schedule: Q01DX009 (ip), vehicle: Klucel (hydroxypropylcellulose) (HPC)
[10] = dose: 400.0 mg/kg/injection, schedule: Q01DX009 (ip), vehicle: Klucel (hydroxypropylcellulose) (HPC)
[11] = dose: 100.0 mg/kg/injection, schedule: Q04DX003 (ip), vehicle: saline
[12] = dose: 100.0 mg/kg/injection, schedule: Q04DX003 (ip), vehicle: Klucel (hydroxypropylcellulose) (HPC)
[13] = dose: 200.0 mg/kg/injection, schedule: Q04DX003 (ip), vehicle: Klucel (hydroxypropylcellulose) (HPC)
[14] = dose: 400.0 mg/kg/injection, schedule: Q04DX003 (ip), vehicle: Klucel (hydroxypropylcellulose) (HPC)
[15] = dose: 100.0 mg/kg/injection, schedule: Q04DX002 (ip), vehicle: saline with Tween-80

Measured: T/C

Cc1cccc2cc3cccc(C)[n+]3cc12
inactive: dose: 5.0 mg/kg/injection, schedule: Q01DX001 (ip), vehicle: other 100 % of control | dose: 10.0 mg/kg/injection, schedule: Q01DX001 (ip), vehicle: other 97 % of control | dose: 20.0 mg/kg/injection, schedule: Q01DX001 (ip), vehicle: other 100 % of control

CC1NNC(=O)C1c1ccc([N+](=O)[O-])cc1 (stereo not given)
inactive: [1] 94 % of control | [2] 94 % of control | [3] 95 % of control

Cc1ccc([N+](=O)[O-])cc1NC(=O)Sc1ccccc1O
inactive: [4] 92 % of control | [5] 90 % of control

C#CCOCCC#N
inactive: [6] 101 % of control | [7] 94 % of control

CCOC(=O)NC(CC)c1ccc2oc3ccccc3c2c1 (stereo not given)
inactive: dose: 100.0 mg/kg/injection, schedule: Q01DX001 (ip), vehicle: Klucel (hydroxypropylcellulose) (HPC) 98 % of control | [8] 90 % of control | dose: 200.0 mg/kg/injection, schedule: Q01DX001 (ip), vehicle: Klucel (hydroxypropylcellulose) (HPC) 103 % of control | [9] 94 % of control | dose: 400.0 mg/kg/injection, schedule: Q01DX001 (ip), vehicle: Klucel (hydroxypropylcellulose) (HPC) 108 % of control | [10] 95 % of control

Cc1ncc([N+](=O)[O-])n1CCN1CCOCC1
inactive: [6] 102 % of control | [7] 96 % of control | dose: 400.0 mg/kg/injection, schedule: Q04DX002 (ip), vehicle: saline 98 % of control

O=C(Cc1ccccc1)NCCc1ccc(-c2ccccc2)cc1
inactive: dose: 100.0 mg/kg/injection, schedule: Q01DX001 (ip), vehicle: carboxymethylcellulose (CMC) 94 % of control | dose: 200.0 mg/kg/injection, schedule: Q01DX001 (ip), vehicle: carboxymethylcellulose (CMC) 96 % of control | dose: 400.0 mg/kg/injection, schedule: Q01DX001 (ip), vehicle: carboxymethylcellulose (CMC) 86 % of control

CCNC(C)(C)C(SSSC(c1cccs1)C(C)(C)NCC)c1cccs1 (stereo not given)
inactive: dose: 25.0 mg/kg/injection, schedule: Q01DX009 (ip), vehicle: other 108 % of control | dose: 50.0 mg/kg/injection, schedule: Q01DX009 (ip), vehicle: other 103 % of control | dose: 100.0 mg/kg/injection, schedule: Q01DX009 (ip), vehicle: other 97 % of control | [11] 98 % of control

CC(=O)NC(C(C)=O)C(C)=O.CC(=O)NC(C(C)=O)C(C)=O.[Cu]
inactive: dose: 12.0 mg/kg/injection, schedule: Q01DX001 (ip), vehicle: saline 90 % of control | dose: 25.0 mg/kg/injection, schedule: Q01DX001 (ip), vehicle: saline 88 % of control

CNC(=O)c1ccc(C(=O)NC)cc1
inactive: dose: 100.0 mg/kg/injection, schedule: Q04DX003 (ip), vehicle: saline with Tween-80 94 % of control | [4] 103 % of control | [5] 100 % of control

CC1(C)C(=NC2CCCCC2)C(C)(C)C1=NC1CCCCC1
inactive: dose: 75.0 mg/kg/injection, schedule: Q01DX001 (ip), vehicle: saline 101 % of control | dose: 150.0 mg/kg/injection, schedule: Q01DX001 (ip), vehicle: saline 100 % of control | dose: 300.0 mg/kg/injection, schedule: Q01DX001 (ip), vehicle: saline 100 % of control

C[P+]1(C)CC2OC23CCCCC31 (stereo not given)
inactive: dose: 12.5 mg/kg/injection, schedule: Q01DX009 (ip), vehicle: saline 98 % of control | dose: 25.0 mg/kg/injection, schedule: Q01DX009 (ip), vehicle: saline 93 % of control | dose: 50.0 mg/kg/injection, schedule: Q01DX009 (ip), vehicle: saline 94 % of control | dose: 100.0 mg/kg/injection, schedule: Q01DX009 (ip), vehicle: saline 96 % of control

CC(=O)Oc1ccc(Cl)cc1/C=C\C=O
inactive: [1] 100 % of control | [2] 101 % of control

CC(C)(C)CC(Cl)Cl
inactive: [8] 100 % of control | [12] 96 % of control | [9] 101 % of control | [13] 98 % of control | [14] 94 % of control

CC(=O)C1C=NCCN=CC(C(C)=O)C(C)=NCCCN=C1C.[Ni] (stereo not given)
inactive: dose: 50.0 mg/kg/injection, schedule: Q01DX009 (ip), vehicle: Klucel (hydroxypropylcellulose) (HPC) 101 % of control | [8] 105 % of control | [12] 100 % of control | [9] 103 % of control | [13] 95 % of control | [14] 106 % of control

CC1(C(=O)O)CCC(C(=O)O)C1(C)C (stereo not given)
inactive: [15] 105 % of control | dose: 200.0 mg/kg/injection, schedule: Q04DX002 (ip), vehicle: saline with Tween-80 100 % of control | dose: 400.0 mg/kg/injection, schedule: Q04DX002 (ip), vehicle: saline with Tween-80 93 % of control

FC(Cl)C(F)(F)Br (stereo not given)
inactive: dose: 75.0 mg/kg/injection, schedule: Q01DX005 (ip), vehicle: saline 95 % of control | dose: 150.0 mg/kg/injection, schedule: Q01DX005 (ip), vehicle: saline 101 % of control | dose: 300.0 mg/kg/injection, schedule: Q01DX005 (ip), vehicle: saline 98 % of control | dose: 600.0 mg/kg/injection, schedule: Q01DX001 (ip), vehicle: acetone 101 % of control

C=CCCCCCCCCC(=O)N/N=C/c1ccccc1
inactive: dose: 100.0 mg/kg/injection, schedule: Q04DX002 (ip), vehicle: Klucel (hydroxypropylcellulose) (HPC) 95 % of control | dose: 200.0 mg/kg/injection, schedule: Q04DX002 (ip), vehicle: Klucel (hydroxypropylcellulose) (HPC) 100 % of control

CN(C)CCC(C=O)(CCN(C)C)c1cccc2ccccc12
inactive: dose: 25.0 mg/kg/injection, schedule: Q04DX002 (ip), vehicle: saline with Tween-80 116 % of control | dose: 50.0 mg/kg/injection, schedule: Q04DX002 (ip), vehicle: saline with Tween-80 94 % of control | [15] 94 % of control

c1nc2c([nH]1)CCCC2
inactive: dose: 25.0 mg/kg/injection, schedule: Q01DX001 (ip), vehicle: carboxymethylcellulose (CMC) 106 % of control | dose: 25.0 mg/kg/injection, schedule: Q01DX009 (ip), vehicle: carboxymethylcellulose (CMC) 103 % of control and 91 % of control | dose: 25.0 mg/kg/injection, schedule: Q04DX002 (ip), vehicle: carboxymethylcellulose (CMC) 94 % of control and 102 % of control | dose: 25.0 mg/kg/injection, schedule: Q04DX003 (ip), vehicle: carboxymethylcellulose (CMC) 95 % of control | dose: 50.0 mg/kg/injection, schedule: Q01DX001 (ip), vehicle: carboxymethylcellulose (CMC) 102 % of control | dose: 50.0 mg/kg/injection, schedule: Q01DX009 (ip), vehicle: carboxymethylcellulose (CMC) 94 % of control and 92 % of control | dose: 50.0 mg/kg/injection, schedule: Q04DX002 (ip), vehicle: carboxymethylcellulose (CMC) 94 % of control and 104 % of control | dose: 50.0 mg/kg/injection, schedule: Q04DX003 (ip), vehicle: carboxymethylcellulose (CMC) 105 % of control | dose: 100.0 mg/kg/injection, schedule: Q04DX003 (ip), vehicle: carboxymethylcellulose (CMC) 92 % of control

CC(=O)OC1CC2(Cl)C(Cl)=C(Cl)C1(Cl)C2(Cl)Cl (stereo not given)
inactive: [1] 100 % of control | [11] 89 % of control | [2] 98 % of control | [3] 98 % of control | dose: 400.0 mg/kg/injection, schedule: Q04DX003 (ip), vehicle: saline 103 % of control

CCCCN(Cc1ccccc1)C(=O)Nc1ccccc1
inactive: [8] 97 % of control | [9] 111 % of control | [10] 100 % of control
